“Also recorded” adds a separate entry of the source.
Legend:
[1] = cited from earlier work
osteoblastic cells = conditions: cited from earlier work
bone = conditions: postmenopausal women, compared with estrogen; cited from earlier work
endogenous BMP-2 = conditions: primarily on the α-estrogen receptor; cited from earlier work
sacroiliac joint = test: Effect of oral raloxifene on bone healing after sacroiliac joint fusion with BMP-2; type: in vivo, human
Source text: The patients involved in the study were female at age of over 60 years old.

fracture healing = conditions: primates; cited from earlier work
tendon to bone healing = conditions: rat model; cited from earlier work
[2] = raloxifene therapy for osteoporosis

In the case of `O=C(c1ccc(OCCN2CCCCC2)cc1)c1c(-c2ccc(O)cc2)sc2cc(O)ccc12` [raloxifene], the “stimulation of the uterus or breasts” value [1, 2] is listed as “does not stimulate”, the tolerability [1, 2] is listed as “well tolerated” and the “occurrence of uterine bleeding, thrombophlebitis, breast abnormalities, or increased endometrial thickness” value ([1]; raloxifene treated groups versus control) is listed as “no differences among groups”. For the same molecule, the “effect on TNF-α induced apoptosis” value (osteoblastic cells) was “anti-apoptotic effect”, the “activation frequency, bone formation rate or bone volume” value (bone) was “did not decrease” and the “effect on endogenous BMP-2 (potentiation / secretion)” value (endogenous BMP-2) was “similar”. For the same molecule, the “bone healing or bone graft incorporation versus raloxifene immediately following surgery” value (sacroiliac joint; delayed raloxifene administration) was “not as complete”, the “recovery versus control patients with BMP-2 only” value (sacroiliac joint; delayed raloxifene administration, some patients) was “superior recovery results” and the “bone healing / maturity of bone” value (sacroiliac joint; females over 60, raloxifene 60 mg/day orally for three months after surgery, BMP-2 at surgery in all patients) was “Significant improvement”. For the same molecule, the “bone graft incorporation into host bone (images)” value (sacroiliac joint; females over 60, three months after surgery, BMP-2 at surgery in all patients, FIGS. 5-7) was “improved incorporation; also recorded: fully healed and incorporated” and the “fusion result compared with patient who received BMP-2 without raloxifene” value (sacroiliac joint; postmenopausal women, local BMP-2 and oral raloxifene, three months) was “better than normal healing”.

For “FGF-2: fibroblast growth factor-2, likely potent bone anabolic agent”, the fracture healing (fracture healing) is given as “accelerates fracture healing and prevents nonunion”.

In the case of estrogen, the “effect on endogenous BMP-2 (potentiation / secretion)” value (endogenous BMP-2) is given as “direct measurable effect”.

B1: rhPTH: Recombinant Human Parathyroid Hormone (protein, UniProt P01270 32-115, looked up)
Parathyroid hormone: SVSEIQLMHNLGKHLNSMERVEWLRKKLQDVHNFVALGAPLAPRDAGSQRPRKKEDNVLVESHEKSLGEADKADVNVLTKAKSQ
modifications: Parathyroid hormone
For B1, the “tendon repair and tendon qualities” value (tendon to bone healing) is given as “improved”.

Reference: patent publication US8933028B2, “Use of selective estrogen receptor modulator for joint fusion and other repair or healing of connective tissue” (priority 2010, dated 2015)
